{"source": "ChEMBL document CHEMBL5241074", "about": "“Dual-target compounds for Alzheimer's disease: Natural and synthetic AChE and BACE-1 dual-inhibitors and their structure-activity relationship (SAR)” (Eur J Med Chem, 2021)", "key": {"Acetylcholinesterase [1]": {"molecular_target": "T1, Acetylcholinesterase (Homo sapiens, UniProt P22303)", "T1 sequence (P22303 whole entry)": "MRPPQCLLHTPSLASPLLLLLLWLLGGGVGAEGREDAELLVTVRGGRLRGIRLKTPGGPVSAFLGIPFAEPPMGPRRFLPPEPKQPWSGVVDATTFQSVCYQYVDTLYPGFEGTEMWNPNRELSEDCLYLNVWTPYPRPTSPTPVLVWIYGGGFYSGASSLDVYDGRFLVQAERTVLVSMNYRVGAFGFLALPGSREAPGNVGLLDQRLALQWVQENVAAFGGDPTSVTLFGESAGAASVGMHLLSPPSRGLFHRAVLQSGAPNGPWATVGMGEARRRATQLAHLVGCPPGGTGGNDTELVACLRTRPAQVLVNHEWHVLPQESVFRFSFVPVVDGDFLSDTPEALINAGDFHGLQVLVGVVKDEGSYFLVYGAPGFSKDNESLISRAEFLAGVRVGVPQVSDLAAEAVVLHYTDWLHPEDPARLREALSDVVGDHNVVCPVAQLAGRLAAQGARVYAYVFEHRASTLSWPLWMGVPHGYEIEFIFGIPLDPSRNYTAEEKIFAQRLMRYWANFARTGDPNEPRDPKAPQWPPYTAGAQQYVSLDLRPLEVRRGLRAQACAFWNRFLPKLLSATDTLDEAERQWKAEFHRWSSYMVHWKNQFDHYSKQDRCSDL", "assay": "Inhibition of AChE (unknown origin)"}, "Beta-secretase 1 [2]": {"molecular_target": "T2, Beta-secretase 1 (Homo sapiens, UniProt P56817)", "T2 sequence (P56817 whole entry)": "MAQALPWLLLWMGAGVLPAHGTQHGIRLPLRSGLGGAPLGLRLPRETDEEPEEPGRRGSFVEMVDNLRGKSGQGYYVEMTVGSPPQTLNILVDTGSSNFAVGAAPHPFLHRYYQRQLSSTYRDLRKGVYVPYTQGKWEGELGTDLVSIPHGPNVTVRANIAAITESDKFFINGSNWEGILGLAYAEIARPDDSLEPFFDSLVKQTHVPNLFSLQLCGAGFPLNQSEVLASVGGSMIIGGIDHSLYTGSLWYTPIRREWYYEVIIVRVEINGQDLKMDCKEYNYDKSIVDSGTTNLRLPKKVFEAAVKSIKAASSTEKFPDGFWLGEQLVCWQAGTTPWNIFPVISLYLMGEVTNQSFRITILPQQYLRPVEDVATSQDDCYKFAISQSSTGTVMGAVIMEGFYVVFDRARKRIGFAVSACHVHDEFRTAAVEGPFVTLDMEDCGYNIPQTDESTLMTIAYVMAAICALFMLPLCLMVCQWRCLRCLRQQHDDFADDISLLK", "assay": "Inhibition of BACE1 (unknown origin)"}, "Beta-secretase 1 [3]": {"molecular_target": "T2, Beta-secretase 1", "assay": "Inhibition of BACE1 (unknown origin) at 2.5 uM relative to control"}, "Beta-secretase 1 [4]": {"molecular_target": "T2, Beta-secretase 1", "assay": "Inhibition of BACE1 (unknown origin) at 5 uM relative to control"}, "Acetylcholinesterase [5]": {"molecular_target": "T1, Acetylcholinesterase", "assay": "Inhibition of AChE (unknown origin) at 100 uM relative to control"}, "Beta-secretase 1 [6]": {"molecular_target": "T2, Beta-secretase 1", "assay": "Inhibition of BACE1 (unknown origin) at 100 uM relative to control"}}, "note": "pIC50: −log10 of the molar value.", "data": [{"compound": "COc1ccccc1NC(=O)C1CCN(C(=O)c2ccccc2)CC1", "values": [{"measurement": "pIC50", "setting": "Acetylcholinesterase [1]", "value": 8.07}, {"measurement": "pIC50", "setting": "Beta-secretase 1 [2]", "value": 7.73}]}, {"compound": "O=C(CCc1ccc2nc(-c3ccccc3)c3c(c2c1)OCCC3)NCCCCCCCNc1c2c(nc3cc(Cl)ccc13)CCCC2", "values": [{"measurement": "pIC50", "setting": "Acetylcholinesterase [1]", "value": 7.94}, {"measurement": "inhibition", "setting": "Beta-secretase 1 [3]", "value": 34.4, "unit": "%"}]}, {"compound": "Oc1cc(O)cc(Oc2c(O)cc(O)c3c2Oc2c(cc(O)c(-c4c(O)cc5c(c4O)Oc4c(Oc6cc(O)cc(O)c6)c(O)cc(O)c4O5)c2O)O3)c1", "values": [{"measurement": "pIC50", "setting": "Acetylcholinesterase [1]", "value": 5.34}]}, {"compound": "CC(C)=CCCC1(C)C=Cc2c(ccc3cc(-c4cc(O)cc(O)c4CC=C(C)C)oc23)O1", "note": "(centres undefined)", "values": [{"measurement": "pIC50", "setting": "Acetylcholinesterase [1]", "value": 5.34}]}, {"compound": "C[C@@H]1O[C@@H](OC[C@H]2O[C@@H](Oc3c(-c4ccc(O)c(O)c4)oc4cc(O)cc(O)c4c3=O)[C@H](O)[C@@H](O)[C@@H]2O)[C@H](O)[C@H](O)[C@H]1O", "note": "[RUTIN]", "values": [{"measurement": "pIC50", "setting": "Acetylcholinesterase [1]", "value": 3.95}, {"measurement": "pIC50", "setting": "Beta-secretase 1 [2]", "value": 8.42}]}, {"compound": "O=C1Cc2cc(N3C(=O)c4ccccc4C3=O)ccc2CN1C(=O)c1ccccc1", "values": [{"measurement": "pIC50", "setting": "Acetylcholinesterase [1]", "value": 7.18}, {"measurement": "pIC50", "setting": "Beta-secretase 1 [2]", "value": 8.23}]}, {"compound": "O=C(CCc1ccc2nc(-c3ccccc3)c3c(c2c1)OCCC3)NCCCCCCCCNc1c2c(nc3cc(Cl)ccc13)CCCC2", "values": [{"measurement": "inhibition", "setting": "Beta-secretase 1 [3]", "value": 77.8, "unit": "%"}]}, {"compound": "C[C@@H]1O[C@@H](O[C@@H]2[C@@H](O)[C@H](OCCc3ccc(O)c(O)c3)O[C@H](CO)[C@H]2OC(=O)/C=C/c2ccc(O)c(O)c2)[C@H](O)[C@H](O)[C@H]1O", "note": "[ACETOSIDE]", "values": [{"measurement": "pIC50", "setting": "Beta-secretase 1 [2]", "value": 8.20}]}, {"compound": "CCC1=CC2Cc3nc4cc(Cl)ccc4c(NCCN4CCC(CC5Cc6cc(OC)c(OC)cc6C5)CC4)c3C(C1)C2", "note": "(single isomer, unassigned; (-))", "values": [{"measurement": "pIC50", "setting": "Acetylcholinesterase [1]", "value": 7.54}, {"measurement": "inhibition", "setting": "Beta-secretase 1 [4]", "value": 12.5, "unit": "%"}]}, {"compound": "OCCc1ccc(O)c(O)c1", "note": "[HYDROXYTYROSOL]", "values": [{"measurement": "pIC50", "setting": "Beta-secretase 1 [2]", "value": 7.46}]}, {"compound": "O=c1c(/C=N/Nc2ccc(C(F)(F)F)cc2)coc2c1ccc1oc(-c3ccc(Cl)cc3)cc12", "values": [{"measurement": "pIC50", "setting": "Acetylcholinesterase [1]", "value": 5.27}, {"measurement": "pIC50", "setting": "Beta-secretase 1 [2]", "value": 4.87}]}, {"compound": "COc1ccc(NC(=O)C2CCN(C(=O)c3ccccc3)CC2)cc1OC", "values": [{"measurement": "pIC50", "setting": "Acetylcholinesterase [1]", "value": 8.39}, {"measurement": "pIC50", "setting": "Beta-secretase 1 [2]", "value": 7.74}]}, {"compound": "COc1cc2c(cc1OC)CC(CC1CCN(CCNc3c4c(nc5cc(Cl)ccc35)CC3C=C(C)CC4C3)CC1)C2", "note": "(centres undefined)", "values": [{"measurement": "pIC50", "setting": "Acetylcholinesterase [1]", "value": 7.89}, {"measurement": "inhibition", "setting": "Beta-secretase 1 [4]", "value": 24.6, "unit": "%"}]}, {"compound": "COc1ccc(/C=C/C(=O)c2cc(I)c(Cl)cc2O)cc1", "values": [{"measurement": "pIC50", "setting": "Acetylcholinesterase [1]", "value": 7.93}, {"measurement": "pIC50", "setting": "Beta-secretase 1 [2]", "value": 7.86}]}, {"compound": "CCC1=CC2Cc3nc4cc(Cl)ccc4c(NCCCN4CCC(CC5Cc6cc(OC)c(OC)cc6C5)CC4)c3C(C1)C2", "note": "(stereo in doubt; (-)-36b)", "values": [{"measurement": "inhibition", "setting": "Beta-secretase 1 [4]", "value": 14.9, "unit": "%"}]}, {"compound": "COc1cc2c(cc1CC=C(C)C)C(=O)CC(c1ccc(O)cc1)O2", "note": "(centres undefined)", "values": [{"measurement": "inhibition", "setting": "Acetylcholinesterase [5]", "value": 80, "unit": "%"}, {"measurement": "inhibition", "setting": "Beta-secretase 1 [6]", "value": 20, "unit": "%"}]}, {"compound": "Cc1cc2c(c(C)c1CCO[C@@H]1O[C@H](CO)[C@@H](O)[C@H](O)[C@H]1O)C(=O)[C@@H](C)[C@H]2O", "values": [{"measurement": "pIC50", "setting": "Acetylcholinesterase [1]", "value": 5.04}]}, {"compound": "COc1ccc(C(=O)N2Cc3ccc(N4C(=O)c5ccccc5C4=O)cc3CC2=O)cc1", "values": [{"measurement": "pIC50", "setting": "Acetylcholinesterase [1]", "value": 7.09}, {"measurement": "pIC50", "setting": "Beta-secretase 1 [2]", "value": 8.77}]}, {"compound": "COc1cc(/C=C/c2nnc(-c3ccc(OC(F)(F)F)cc3)o2)ccc1O", "values": [{"measurement": "pIC50", "setting": "Acetylcholinesterase [1]", "value": 10.04}, {"measurement": "pIC50", "setting": "Beta-secretase 1 [2]", "value": 9.68}]}, {"compound": "COc1cc(/C=C/c2nnc(-c3ccc(F)cc3F)o2)ccc1O", "values": [{"measurement": "pIC50", "setting": "Acetylcholinesterase [1]", "value": 9.72}, {"measurement": "pIC50", "setting": "Beta-secretase 1 [2]", "value": 9.20}]}, {"compound": "COc1cc(O)cc(-c2cc3ccc(O)c(C/C=C(\\C)CCC=C(C)C)c3o2)c1CC=C(C)C", "values": [{"measurement": "pIC50", "setting": "Acetylcholinesterase [1]", "value": "< 3.70"}]}, {"compound": "CCC1=CC2Cc3nc4cc(Cl)ccc4c(NCCCN4CCC(CC5Cc6cc(OC)c(OC)cc6C5)CC4)c3C(C1)C2", "note": "(racemic)", "values": [{"measurement": "pIC50", "setting": "Acetylcholinesterase [1]", "value": 8.20}]}, {"compound": "COc1cc(/C=C/c2nnc(-c3ccc(Cl)cc3)o2)ccc1O", "values": [{"measurement": "pIC50", "setting": "Acetylcholinesterase [1]", "value": 9.48}, {"measurement": "pIC50", "setting": "Beta-secretase 1 [2]", "value": 9.20}]}, {"compound": "O=c1c(/C=N/Nc2ccc(C(F)(F)F)cc2)coc2cc3oc(-c4cccc(Cl)c4)cc3cc12", "values": [{"measurement": "pIC50", "setting": "Acetylcholinesterase [1]", "value": 4.74}, {"measurement": "pIC50", "setting": "Beta-secretase 1 [2]", "value": 4.48}]}, {"compound": "COc1ccccc1C(=O)N1Cc2ccc(N3C(=O)c4ccccc4C3=O)cc2CC1=O", "values": [{"measurement": "pIC50", "setting": "Acetylcholinesterase [1]", "value": 7.09}, {"measurement": "pIC50", "setting": "Beta-secretase 1 [2]", "value": 8.53}]}, {"compound": "CC(C)=CCc1cc2c(cc1O)O[C@H](c1ccc(O)cc1)CC2=O", "values": [{"measurement": "inhibition", "setting": "Acetylcholinesterase [5]", "value": 34, "unit": "%"}, {"measurement": "inhibition", "setting": "Beta-secretase 1 [6]", "value": 14, "unit": "%"}]}, {"compound": "COc1cc(/C=C/c2nnc(-c3ccc(F)cc3)o2)ccc1O", "values": [{"measurement": "pIC50", "setting": "Acetylcholinesterase [1]", "value": 9.55}, {"measurement": "pIC50", "setting": "Beta-secretase 1 [2]", "value": 9.32}]}, {"compound": "COc1cc(/C=C/c2nnc(-c3ccc(Cl)cc3Cl)o2)ccc1O", "values": [{"measurement": "pIC50", "setting": "Acetylcholinesterase [1]", "value": 9.66}, {"measurement": "pIC50", "setting": "Beta-secretase 1 [2]", "value": 9.06}]}, {"compound": "O=C(NCCCCCCCCNc1c2c(nc3cc(Cl)ccc13)CCCC2)c1ccc2nc(-c3ccc(Cl)cc3)c3c(c2c1)OCCC3", "values": [{"measurement": "inhibition", "setting": "Beta-secretase 1 [3]", "value": 18.5, "unit": "%"}]}, {"compound": "COc1ccc(-c2oc3cc(Br)c(I)cc3c(=O)c2O)cc1", "values": [{"measurement": "pIC50", "setting": "Beta-secretase 1 [2]", "value": 7.80}]}, {"compound": "Cc1cc2c(c(C)c1CCO[C@@H]1O[C@H](CO)[C@@H](O)[C@H](O)[C@H]1O)C(=O)[C@H](C)[C@H]2O", "values": [{"measurement": "pIC50", "setting": "Acetylcholinesterase [1]", "value": 5.42}, {"measurement": "pIC50", "setting": "Beta-secretase 1 [2]", "value": 5.01}]}, {"compound": "CC(C)=CCC/C(C)=C/Cc1c(O)ccc2cc(-c3cc(O)cc(O)c3CC=C(C)C)oc12", "note": "[MULBERROFURAN D]", "values": [{"measurement": "pIC50", "setting": "Acetylcholinesterase [1]", "value": 4.64}, {"measurement": "pIC50", "setting": "Beta-secretase 1 [2]", "value": 5.43}]}, {"compound": "COc1cc2c(cc1OC)CC(CC1CCN(CCCNc3c4c(nc5cc(Cl)ccc35)CC3C=C(C)CC4C3)CC1)C2", "note": "(racemic)", "values": [{"measurement": "inhibition", "setting": "Beta-secretase 1 [4]", "value": 29.1, "unit": "%"}]}]}
